{"source": "patent US9333268B2", "about": "“Methods of treatment with arginine deiminase” (Polaris Group, priority 2012, dated 2016)", "key": {"[1]": {"system": "human pancreatic cancer cell line MIA-PaCa2", "test": "Western blot/ELISA of caspase 3 cleavage, LC3 and p62", "assay_type": "cell-based", "details": "ChQ 5 μM added to ADI-PEG 0.3 μg/mL, 72 hours", "experimental": "The human pancreatic cancer cell line MIA-PaCa2 was treated in vitro and in vivo with pegylated arginine deiminase (ADI-PEG) alone or in the presence of ChQ. Cell death was measured by propidium iodide (PI)-FACS to determine sub-G1 DNA content, and apoptosis was evaluated by Annexin V-PI flow cytometry. Cleavage of caspase 3 was evaluated by western blots and ELISA. Autophagy was measured by evaluating the expression levels of LC3 and […] p62 (p62) by western blots and ELISA.\nIn order to determine if ADI induces apoptosis and autophagy in a caspase dependent manner, cells were incubated with either ADI-PEG or a combination of ADI-PEG and ZVAD-fmk, a pan-caspase inhibitor.\nThe levels of p62, LC3B-I, and LC3B-II were measured by western blot analysis in order to examine autophagic flux."}, "[2]": {"system": "SK-LC-13", "test": "Western blot of autophagy-related protein LC3-II", "assay_type": "cell-based, human", "details": "24 hour incubation", "from_the_text": "Following washing, the membranes were then probed with the appropriate secondary antibody before proteins were finally visualized using ECL reagent (Perkin-Elmer, Fremont Calif., USA).\nAn assay for the formation of the autophagy-related protein LC3-II assessed if treatment with ADI-PEG 20 was able to induce cellular autophagy in SCLC. […] Chloroquine is a known inhibitor of autophagy that disrupts normal lysosomal functions, and thus results in an increase in the cellular level of LC3-II."}, "[3]": {"system": "SK-LC-13 cells", "test": "FACS analysis of apoptosis by sub-G1 DNA content (propidium iodide)", "assay_type": "cell-based, human", "details": "25 nM, 72 h", "experimental": "Apoptosis was measured by FACS of propidium-iodide-stained cells as detailed by Riccardi et al (Riccardi and Nicoletti, Nat Protoc 1(3):1458-1461, 2006). Cells were plated in 24-well plates and treated with ADI-PEG 20 for […]. Cells were then harvested, washed and fixed in 70% ethanol. DNA was then stained using 20 μg ml^−1 propidium iodide containing 10 μgml^−1 DNAse-free RNAse A (Sigma-Aldrich). Cells were then read on a BD FACSCalibur (BD Biosciences) and analyzed using Flow Jo Software (Tree Star, Ashland, Oreg., USA).\nIn order to determine the possible mechanism of the antiproliferative effects of ADI-PEG 20 a FACS analysis of apoptosis by sub-G1 DNA content was performed. Cells were treated for 72 h before the analysis was performed."}}, "note": "Counter-ions that a name gives are not always drawn."}
{"smiles": "CCN(CCO)CCCC(C)Nc1ccnc2cc(Cl)ccc12", "note": "(stereo not drawn) [ChQ, hydroxychloroquine]", "values": [{"measurement": "ADI induced apoptosis", "setting": "[1]", "result": "enhanced ADI induced apoptosis"}, {"measurement": "LC3B-I and LC3B-II", "setting": "[1]", "result": "increase in the build up of both LC3B-I and LC3B-II"}, {"measurement": "autophagic flux", "setting": "[1]", "result": "diminished autophagic flux"}, {"measurement": "level of p62", "setting": "[1]", "result": "increase in the level of p62"}]}
{"smiles": "CCN(CC)CCCC(C)Nc1ccnc2cc(Cl)ccc12", "note": "(stereo not drawn) [chloroquine, reference compound]", "values": [{"measurement": "cellular level of LC3-II", "setting": "[2]", "result": "very robust expression of LC3-II"}]}
{"smiles": "CC[C@@]1(O)C(=O)OCc2c1cc1n(c2=O)Cc2cc3c(CN(C)C)c(O)ccc3nc2-1", "note": "[topotecan, Topotecan hydrochloride, reference compound]", "values": [{"measurement": "cells in apoptosis (sub-G1 DNA content)", "setting": "[3]", "result": "around 45%"}]}
